Laboratory results published in a melting point compilation (Tetko et al.).

melting point [°C]	SMILES
100	Nc1ccncc1C(F)(F)F
191	NS(=O)(=O)c1ccccc1[N+](=O)[O-]
64 to 66	CCCCOc1ccc(N)c([N+](=O)[O-])c1
75	CCOC(=O)C(=CN(O)c1ccccc1)c1ccccc1
44	CCCCCCOc1ccc(N)cc1
87	Cc1cc(N(C)C)nc(Cl)n1
214 to 215	Cc1nc(-c2ccccc2)sc1C(=O)O
190 to 193	COc1ccc(NC(=O)C=CC(=O)O)cc1
153 to 154	CC1=NN(c2ccccc2)C(=O)/C1=C\c1ccccc1O
250 to 252	COc1ccc(C(=O)Cn2cc([N+](=O)[O-])nc2C)cc1
221	CC#CCN1C(=O)c2ccccc2C1=O
49	COC(=O)c1cc2ccccc2cc1C(=O)OC
106	CC(C)(C)OC(=O)n1cc(CBr)c2ccccc21
130	NS(=O)(=O)c1ccc(S(=O)(=O)CCCO)c(F)c1
-45	COC1CCC(OC)O1 (stereo unspecified)
132	O=C(c1ccc2c(c1O)CC=CC2)c1cccc2ccccc12
182 to 183	Cc1csc2ncnc(NN)c12
25	CC(C)=CCCC(C)=CCCC(C)=CCO
72.5	O=[N+]([O-])c1c(Cl)cccc1Cl
174	Cc1cc(C(F)(F)F)n2nc(-c3ccccc3)cc2n1
204 to 205	Oc1ccc(CCc2nnc(S)n2-c2ccc(F)cc2)cc1
78	c1ccc(-c2cccc(-c3ccccc3)n2)cc1
76	FC(F)(F)COc1ccc(OCC(F)(F)F)cc1

melting point [°C]	SMILES
174 to 176	Nc1c(S(=O)(=O)c2ccccc2)csc1C(=O)O
56	CC(=O)C1CCc2ccccc2C1=O (stereo unspecified)
89 to 90	Cc1ccc(OC(C)(C)C(=O)O)c2c1CCC2
138	COc1c(OC)c(OC(C)=O)c2ccccc2c1OC(C)=O
73	O=C(Cc1ccccc1)C(=O)C(Br)c1ccccc1 (stereo unspecified)
225	ICC(CI)(CI)CI
264	CC(=O)Nc1ncc([N+](=O)[O-])s1
99.5	CN1C2CCC1CC(OC(=O)C(O)c1ccccc1)C2 (stereo unspecified)
124 to 125	Nc1cc(Cl)cnc1Cl
-61	C#CC(C)(C)Cl
230 to 234	O=C(O)/C=C/c1ccc(C(F)(F)F)cc1
297	C[C@@H]1C(=O)[C@]23C[C@H]1CC[C@H]2[C@@]1(CCC[C@@]2(C)COC(=O)[C@H]21)COC3=O
238	NNC(=O)C(=O)NC1CCCCC1
190	CN(C)c1ccc(NC(N)=S)cc1
230	Oc1cc(C(F)(F)F)nc2cc(Cl)cc(Cl)c12
144	COc1c2ccoc2cc2oc(C)cc(=O)c12
-1.5	CC(C)C(C)C(=O)O (stereo unspecified)
47.5	Cc1ccc(SSc2ccc(C)cc2)cc1
56 to 58	Cc1ccc(C)n1-c1cc([N+](=O)[O-])ccc1F
120	CC(=O)OC1CC2C(C)C(=O)C3(C(O)CC4C(C)(C)CCCC4(CO)C13)C2O (stereo unspecified)
34 to 36	O=S(=O)(Cl)c1sc(Cl)cc1Br
< -21	CC(C)C[C@H]1OC[C@@H](C)CO1
128	COc1ccc2c(c1)OC1c3ccc(O)cc3OCC21 (stereo unspecified)

melting point [°C]	SMILES
212	O=C1N[C@H]2[C@H](CS[C@H]2CCCCC(=O)ON2C(=O)CCC2=O)N1
137 to 139	COC(OC)c1ccc(C#N)c(S)n1
198 to 199	Cn1c(=O)c2c(nc(Cl)n2CC(=O)O)n(C)c1=O
128 to 129	O=C1C=C(NCCc2ccccn2)C(=O)c2ccccc21
59	CCOC(=O)C(C)(C)C1(c2ccc(OC)cc2)CCC(=O)O1 (stereo unspecified)
51	CC(C#N)c1ccccc1[N+](=O)[O-] (stereo unspecified)
82 to 83	CCOC(=O)c1cc(-c2ccc(C)cc2)oc1C
174	COc1ccc(-c2ccc(S(=O)(=O)NC(CCSC)C(=O)O)cc2)cc1 (stereo unspecified)
162	c1ccc(-c2nc3ccccc3nc2-c2ccc3c4c(cccc24)CC3)cc1
54 to 57	S=P(N1CC1)(N1CC1)N1CC1
224 to 225	Nc1ccc(-c2ccc3nn(-c4ccccc4)nc3c2)cc1
80	COc1ccc(C(C)=NO)cc1
174	COc1ccccc1/C=C(\C(N)=O)c1nc2ccccc2s1
-49.5	CCCCCC=CCC=CCC=CCC=CCCCC(=O)O
111	Cc1cccc(N(C)C(=S)Oc2ccc3ccccc3c2)c1
194 to 196	Cc1c(C#N)c(N)n(Cc2c(Cl)cccc2Cl)c1C
57	O=C(O)CCCCCCCCCCBr
200	Nc1cc(-c2ccccc2)ccc1O
70 to 74	CCOC(=O)C1=C(N)CCCC1
95 to 97	CCCc1c(O)ccc(C(C)=O)c1N
73 to 77	Cc1onc(-c2ccccc2)c1N=C=S
-40.1	FC1(F)C(F)(F)C(F)(F)C1(F)F
39.2	CCCCCCC(C=O)=Cc1ccccc1

melting point [°C]	SMILES
224 to 226	Cc1nn(Cc2cccc(C(=O)O)c2)c(C)c1Br
71.5	CCOc1ccc(N)c(N)c1
130	CCCCCCCCCCCCSC(C(=O)Nc1cc(C)c(O)c(C)c1C)c1ccccc1 (stereo unspecified)
72	N#Cc1ccc(N)c(OC(F)(F)F)c1
154	CO[C@]12C(=O)CCc3cccc(c31)Oc1ccc3ccccc3c12
305 to 307	N#CC1=C(N)n2nc(C(F)(F)F)nc2NC1c1ccc(Cl)cc1Cl (stereo unspecified)
250 to 292	O=C(O)C1CNC1
-101	C=Cc1cccc(CC)c1
30	CCCCCC(O)C=CC1C(O)CC(O)C1CC=CCCCC(=O)O (stereo unspecified)
34	CCOC(=O)c1ccc(OC(C)=O)cc1
159 to 160	FC(F)(F)c1ccc(=S)[nH]c1
56	O=[N+]([O-])c1cc(F)c(Br)cc1F
90	CCC1(CC)OC(=O)C2CCC1(C)OC2(C)C (stereo unspecified)
167 to 170	NNC(=S)Nc1ccc(OCc2ccccc2)cc1
101	CC1CCC(C)(COC(=S)Nc2ccccc2)C1(C)C (stereo unspecified)
78 to 80	COC(=O)c1cc(Cl)cc(C(=O)OC)c1
181	N#CC1=C(N)Oc2[nH]nc(C(F)(F)F)c2C1c1ccccc1Cl (stereo unspecified)
196	CCOC(=O)C(=NNc1ccccc1[N+](=O)[O-])C(=O)OCC
178 to 181	Cc1ccc(NC(N)=O)cc1
129 to 131	COC(=O)NNC(=O)OC
218	Nc1ccc(C(=O)O)nc1
114 to 116	CC(=O)N1CCSC1C(=O)O (stereo unspecified)
78.5	O=[N+]([O-])c1ccsc1

melting point [°C]	SMILES
177	O=C(Nc1ccccc1)C(c1ccccc1)c1ccccc1
18	CCCCCCCCCCCCCCCCCC(C)C
149 to 154	CC(=O)Nc1ccc(S)cc1
88	O=C1OC2(Cc3ccccc31)Cc1ccccc12 (stereo unspecified)
149	Cc1nc(/C(C#N)=C/c2ccc(N(C)C)cc2)sc1/N=N/c1ccc(F)cc1
101 to 106	O=C(C[N+](=O)[O-])c1ccccc1
115	CC1CCC(C(C)C)C(OC(=O)C(C(=O)c2ccccc2)c2ccccc2)C1 (stereo unspecified)
42	Nc1c(Br)cc(Br)cc1C(F)(F)F
-44.5	CCc1cccc2c1CCCC2
128	CC(=O)OCC1=CC2CC(=O)C3=COC(OC4OC(CO)C(O)C(O)C4O)C1C32 (stereo unspecified)
165	ON=Cc1ccc[nH]1
151	O=c1nc2ccccc2nc(C(F)(F)F)c1NNc1ccc(Cl)cc1
111 to 113	COc1ccc(N=C=S)c([N+](=O)[O-])c1
246 to 248	CC(=O)NC1C(Oc2c[nH]c3ccc(Br)c(Cl)c23)OC(CO)C(O)C1O (stereo unspecified)
70 to 74	Cc1c(C(=O)Cl)oc2ccccc12
82 to 84	OC(CBr)C(O)CBr (racemic)
80	Nc1c(C=O)cnn1-c1ccc(Cl)cc1
134	CC1(C)OC2(C)CCC1C(=O)OC2(c1ccccc1)c1ccccc1 (stereo unspecified)
244 to 246	CC(=O)NC1=NC(=O)C(=Cc2cc(=O)c3ccccc3o2)N1C
228	CCCc1ccccc1/C=N/Nc1ccc([N+](=O)[O-])cc1[N+](=O)[O-]

SMILES	melting point [°C]
NP(=O)(Oc1ccccc1)Oc1ccccc1	149
COc1ccc2c(c1O)-c1cccc3c1C(C2)N(C)CC3 (stereo unspecified)	124
N#Cc1cccc(Cl)c1	41
ClC(Cl)(Cl)C(Cl)(Cl)Cl	187
COc1ccc(C(c2ccc(OC)cc2)C(Cl)(Cl)Cl)cc1	87
CC12C(=O)OC(=O)C1(C)C1CCC2O1 (stereo unspecified)	218
C=C(C)C(=O)C(=CC(=O)O)OC	83
CCCCCCCCCCCC#N	4
CC12CCC3C(CCC4CC5(CCC43C)OCCO5)C1CCC2=O (stereo unspecified)	153
CNC(=O)ON=CC(C)(C)S(C)(=O)=O	141
O=C(O)C1(O)c2ccccc2-c2ccc(Cl)cc21 (stereo unspecified)	152
CC(C)N(C(=O)Cl)C(C)C	55 to 60
CCC1(CCC(C)C)C(=O)NC(=O)NC1=O	156
O=[N+]([O-])c1ccc(Br)c([N+](=O)[O-])c1	72
O=C(CCl)N1CCOCC1	37
CC12CCC3C(CCC4=CC(=O)C=CC43C)C1CCC(=O)O2 (stereo unspecified)	218
CCOP(=S)(OCC)SCSP(=S)(OCC)OCC	-12
c1cc2ccc3cccc4ccc(c1)c2c34	153
N#CC(CCN1CCC(C(N)=O)(N2CCCCC2)CC1)(c1ccccc1)c1ccccc1	150
